Entries after “also recorded” stand apart in the source; their conditions may differ.
Key:
[1] = test system: FCA-rats; test: side effects observed after i.v. bolus doses in FCA-rats; format: in vivo, Sprague-Dawley rats; parameters: key to Intensity: 0 = none; 1 = mild; 2 = moderate; 3 = severe; 4 = extreme
Method: Each of the compounds F70.3.2 and F70.3.6 were dissolved in sterile saline. The compounds of interest were administered initially in a dose of 0.01 mg/kg in an injection volume of 0.5 mL. The other i.v. doses administered in this preliminary study were as follows: […]

[2] = test system: FCA-rats; test: paw pressure test in rat model of inflammatory pain (FCA); format: in vivo, Sprague-Dawley rats; settings: i.v. bolus; for dose-response of antinociceptive effect (AUC versus dose): ipsilateral hindpaw, FIG. 68
Method: Adult male Sprague-Dawley rats were housed in a temperature controlled room (21±2° C.) with a 12 h/12 h light/dark cycle and free access to both food and water. Ethical approval for this study was obtained from the Animal Experimentation Ethics Committee of The University of Queensland.
Inflammation of the rat hindpaw was induced by intra-plantar (i.pl.) injection of Freund's Complete Adjuvant (FCA, 0.15 mL) whilst rats were under brief 3% isoflurane: 97% oxygen inhalational anaesthesia. Inflammatory pain was assessed using the paw pressure test (see below for details). The test compounds were administered on either day 5 or day 6 following i.pl. FCA administration.
Jugular vein cannulation was performed whilst rats were anaesthetised with 3% isoflurane: 97% O2 inhalational anaesthesia maintained using a calibrated Trilene vapouriser. Polyethylene cannulae (previously filled with heparinised saline) were implanted into the right common jugular vein for i.v. drug dosing. Cannulae were exteriorized by subcutaneous (s.c.) tunneling to an incision made in the interscapular area, and protected by a stainless steel spring, the base of which was positioned in a subcutaneous pocket between the scapulae. Incisions were closed with sterile silk sutures. After surgery, rats were housed singly in metabolic cages and were allowed to recover post-operatively for a minimum of 2 h before further experimentation. Food and water were available ad libitum during the recovery period.
Each of the compounds F70.3.2 and F70.3.6 were dissolved in sterile saline. The compounds of interest were administered initially in a dose of 0.01 mg/kg in an injection volume of 0.5 mL. The other i.v. doses administered in this preliminary study were as follows:
Control rats received bolus doses of i.v. saline. Antinociceptive Testing: Paw Pressure Test
For the paw pressure test, rats were gently restrained under a towel, and incremental mechanical pressure (maximum=250 g) was applied to the dorsal surface of the hindpaw. The pressure required to elicit paw withdrawal, the paw pressure threshold (PPT), was determined. The mean of 3 consecutive measurements, separated by 10 s, was determined. The same procedure was then performed on the contralateral side with the sequence of sides being alternated to preclude order effects. Similarly, rats were gently restrained under a towel for the quantification of paw volumes using a plethysmometer.
Following administration of i.v. bolus doses of each of the test compounds (F70.3.2 and F70.3.6), paw withdrawal thresholds (g) were normalized by subtraction of the individual baseline PWT values quantified immediately prior to drug administration. The area under the normalized PWT versus time (AUC) was calculated using the trapezoidal rule. Dose-response curves were constructed by plotting the AUC values versus the i.v. dose for each of F70.3.2 and F70.3.6.

[3] = test system: Male Quackenbush mice; test: mouse formalin assay; format: in vivo
Method: The formalin assay involves the subcutaneous injection of a small amount of formalin into the fore or hind paw of a rat or mouse and the behavioural response to this injection is recorded as a measure of pain response.
The formalin assay was preformed on male mice using morphine, and other compounds of interest, as an analgesic, to test the viability and reliability of the assay as a means of measuring pain response in mice.
Male Quackenbush mice weighing 25-35 g were used. They were housed in colony cages (400×300×130 mm; Wiretainers) with ad libitum access to food (standard rat/mouse pellets; Norco Feeds) and water. For short term storage a maximum of 15-16 mice were housed per cage while for longer periods this number was reduced to less than 10 mice per cage. Bedding material was wood shavings or more commonly recycled paper pellets (Breeders Choice).
Formalin (Ajax) was supplied as solution of approximately 37.5% formaldehyde containing 10% methanol as a preservative. […]
Morphine and other compounds of interest were injected in a volume of 10 mL/kg intraperitoneally (ip) 30 minutes prior to formalin administration. […] The sole behavioural response recorded was the amount of time the animal spent biting or licking the injected paw or leg per 5 minute block was recorded. […]
Using this value a percentage pain inhibition can be calculated using the formula:—

[4] = cited from earlier work; for inhibition of acetic acid induced writhing: 10 and 30 mg/kg (sc) [56]; for ED50: acetic acid writhing test [52]
[5] = test system: mice; settings: cited from earlier work; for analgesia in both phases of the formalin test: [61]; for response in both early and late phases: known analgesics [61]; for effect on late phase: anti-inflammatory compounds and steroids [61]
[6] = test system: mice; settings: mice [59]; cited from earlier work
[7] = test system: mice; settings: mice [59]; cited from earlier work; remark: listed apart in the source
[8] = i.v. 0.005 mg/kg, Apnoea, Table 19
[9] = i.v. 0.02 mg/kg, Apnoea, Table 19
[10] = i.v. 0.02 mg/kg, Staring, Table 19
[11] = i.v. 0.005 mg/kg, Body shaking, Table 20
[12] = i.v. 0.01 mg/kg, Body shaking, Table 20
[13] = i.v. 0.02 mg/kg, Staring, Table 20
[14] = i.v. 0.05 mg/kg, Apnoea, Table 20
[15] = i.v. 0.05 mg/kg, Staring, Table 20

Molecule: CC(=O)OCC12C(O)CC3(C)C(=CCC4C5(C)CCC(OC6OC(C(=O)O)C(O)C(OC7OCC(O)C(O)C7O)C6OC6OC(CO)C(O)C(O)C6O)C(C)(C)C5CCC43C)C1CC(C)(C)C(OC(=O)c1ccccc1)C2O [Compound F70.3.2, 3-O-β-D-xylopyranosyl(1→3)-[β-D-galactopyranosyl(1→2)]-β-D-glucuronopyranosyl-21-O-benzoyl-28-O-acetyl barringtogenol C]
- Duration [1, 8]: 0.5 min
- Intensity [1, 8]: 1
- No of rats observed with side-effect [1, 8]: 1/3
- Onset [1, 8]: 180 min
- Side effect ([1]; i.v. 0.005 mg/kg, Table 19): Apnoea
- Duration [1, 9]: 15 min
- Intensity [1, 9]: 1
- No of rats observed with side-effect [1, 9]: 1/3
- Onset [1, 9]: 30 min
- Duration [1, 10]: 15 min
- Intensity [1, 10]: 1
- No of rats observed with side-effect [1, 10]: 1/3
- Onset [1, 10]: 30 min
- Side effect ([1]; i.v. 0.02 mg/kg, Table 19, 0.02 mg/kg): Apnoea; also recorded: Staring
- antinociception, contralateral (non-inflamed) hindpaw [2]: absence of antinociception
- antinociception, ipsilateral (inflamed) hindpaw (paw withdrawal threshold) ([2]; FIG. 65): dose-related increase in the antinociceptive potency
- dose-response of antinociceptive effect (AUC versus dose) [2]: distinct increase and then plateau

Molecule: CC(=O)OC1C(OC2OCC(OC(=O)c3ccccc3)C(OC(=O)C(C)C(C)OC(=O)c3ccccc3)C2O)C(C)(C)CC2C3=CCC4C5(C)CCC(OC6OC(C(=O)O)C(O)C(OC7OCC(O)C(O)C7O)C6OC6OC(CO)C(O)C(O)C6O)C(C)(C)C5CCC4(C)C3(C)CC(O)C21CO [Compound F70.3.6, 3-O-β-D-xylopyranosyl(1→3)-[β-D-galactopyranosyl(1→2)]-β-D-glucuronopyranosyl-21-O-[3-(3-benzoyl-2-methylbutanoyl)-4-benzoyl-α-L-arabinopyranosyl]-22-O-acetyl barringtogenol C]
- Duration [1, 11]: 5 min
- Intensity [1, 11]: 1
- No of rats observed with side-effect [1, 11]: 1/3
- Onset [1, 11]: 15 min
- Side effect ([1]; i.v. 0.005 mg/kg, Table 20): Body
- Duration [1, 12]: 5 min
- Intensity [1, 12]: 1
- No of rats observed with side-effect [1, 12]: 1/3
- Onset [1, 12]: 30 min
- Side effect ([1]; i.v. 0.01 mg/kg, Table 20): Body
- Duration [1, 13]: 15 min
- Intensity [1, 13]: 1
- No of rats observed with side-effect [1, 13]: 1/3
- Onset [1, 13]: 45 min
- Side effect ([1]; i.v. 0.02 mg/kg, Table 20): Staring
- Duration [1, 14]: 30 min
- Intensity [1, 14]: 1
- No of rats observed with side-effect [1, 14]: 1/1
- Onset [1, 14]: 5 min
- Duration [1, 15]: 15 min
- Intensity [1, 15]: 1
- No of rats observed with side-effect [1, 15]: 1/1
- Onset [1, 15]: 30 min
- Side effect ([1]; i.v. 0.05 mg/kg, Table 20, 0.05 mg/kg, onset 5 min, lasting 30 min): Apnoea
- Side effect ([1]; i.v. 0.05 mg/kg, Table 20, 0.05 mg/kg, onset 30 min, lasting 15 min): Staring
- antinociception, contralateral (non-inflamed) hindpaw [2]: absence of antinociception
- antinociception, ipsilateral hindpaw ([2]; dose range 0.002-0.01 mg/kg, FIG. 66): dose-related increase in the antinociceptive potency
- antinociceptive response, ipsilateral hindpaw, on further increases in dose ([2]; doses above 0.01 mg/kg): decreased rather than an increased antinociceptive response
- dose-response of antinociceptive effect (AUC versus dose) [2]: distinct increase and then plateau

Molecule: C[S+](C)[O-] [DMSO control, dimethyl sulfoxide]
- reduction of pain response by DMSO ([3]; high dose (5%) DMSO): 57%

Molecule: CC1(C)CC[C@]2(C(=O)O[C@@H]3O[C@H](CO)[C@@H](O)[C@H](O)[C@H]3O)CC[C@]3(C)C(=CC[C@@H]4[C@@]5(C)CC[C@H](O[C@@H]6O[C@H](CO)[C@@H](O)[C@H](O)[C@H]6O)[C@@](C)(C(=O)O)[C@@H]5CC[C@]43C)[C@@H]2C1 [Dianoside A]
- inhibition of acetic acid induced writhing [4]: significantly inhibit

Molecule: CC1(C)CC[C@]2(C(=O)O[C@@H]3O[C@H](CO[C@@H]4O[C@H](CO)[C@@H](O)[C@H](O)[C@H]4O)[C@@H](O)[C@H](O[C@@H]4O[C@H](CO)[C@@H](O)[C@H](O)[C@H]4O)[C@H]3O)CC[C@]3(C)C(=CC[C@@H]4[C@@]5(C)CC[C@H](O[C@@H]6O[C@H](CO)[C@@H](O)[C@H](O)[C@H]6O)[C@@](C)(C(=O)O)[C@@H]5CC[C@]43C)[C@@H]2C1 [Dianoside B]
- inhibition of acetic acid induced writhing [4]: significantly inhibit

Molecule: CC(=O)Oc1ccccc1C(=O)O [aspirin]
- analgesia in both phases of the formalin test [5]: analgesic in a dose dependent manner in both phases
- ED50 [4]: 125 mg/kg
- inhibition of acetic acid induced writhing [6]: 80%
- inhibition of p-phenylquinone induced writhing [7]: 85%

Molecule: COc1ccc2c3c1O[C@H]1[C@@H](O)C=C[C@H]4[C@@H](C2)N(C)CC[C@@]341 [codeine]
- response in both early and late phases [5]: can be reduced

Molecule: C[C@]12CCC(=O)C=C1CC[C@@H]1[C@@H]2[C@@H](O)C[C@@]2(C)[C@H]1CC[C@]2(O)C(=O)CO [hydrocortisone]
- effect on late phase [5]: affected

Molecule: COc1ccc2c(c1)c(CC(=O)O)c(C)n2C(=O)c1ccc(Cl)cc1 [indomethacin]
- effect on late phase [5]: affected

Molecule: CN1CC[C@]23c4c5ccc(O)c4O[C@H]2[C@@H](O)C=C[C@H]3[C@H]1C5 [morphine]
- analgesia induced ([5]; at 6 mg/kg [64]): almost complete analgesia
- response in both early and late phases [5]: can be reduced
- ED50, entire experimental period ([5]; subcutaneous, entire experimental period [63]): 4.8 mg/kg
- ED50 ([3]; Mus musculus, ip, read-out: ED50 (morphine dose response curve, pain inhibition)): 4.8 mg/kg

Molecule: COc1ccc2cc([C@H](C)C(=O)O)ccc2c1 [naproxen]
- effect on late phase [5]: affected

Molecule: CN1CCOC(c2ccccc2)c2ccccc2C1 (centres unmarked) [nefopam]
- response in both early and late phases [5]: can be reduced

Molecule: Cc1ccccc1C(OCCN(C)C)c1ccccc1 (centres unmarked) [orphendarine]
- response in both early and late phases [5]: can be reduced

Molecule: CC(=O)Nc1ccc(O)cc1 [paracetamol]
- analgesia in both phases of the formalin test [5]: analgesic in a dose dependent manner in both phases

Molecule: barbatoside A
- ED50 [4]: 95 mg/kg
